Biological target: human M4 receptor (Homo sapiens (Human), UniProt P08173)
Experiment: Binding assay: inhibition of radioligand (tritiated N-methylscopolamine) binding to membranes from CHO cells expressing human M4 receptor
Conditions: CHO cell membranes, 1.5 nM tritiated N-methylscopolamine
Description: Binding affinity (Ki) for the compounds was measured by inhibition of radioligand binding to membranes from CHO cells expressing human M4 receptor. Membranes were prepared by nitrogen cavitation and differential centrifugation as previously described (Hoare et al., Mol. Pharmacol. 2003 March; 63(3): 751-65). The radioligand employed was tritiated N-methylscopolamine, used at a concentration of 1.5 nM. A dose-response of twelve concentrations of compound was used, ranging from […]. The assay buffer was 50 mM HEPES, 100 mM NaCl, 5 mM MgCl2, 1 mM ethylenediaminetetraacetic acid, pH-adjusted to pH 7.4. Membranes, radioligand and compound were incubated together for 90 minutes at 37° C., in a total volume of 150 μL in a 96-well plate. Receptor-bound radioligand was then collected by harvesting the assay over glass fiber filters pretreated with polyethylenimine to trap the cell membranes, using rapid vacuum filtration. Harvesting and radioactivity counting was conducted as previously described (see, e.g., Hoare et al., Mol. Pharmacol. 2003 63(3):751-65); Erratum at Mol. Pharmacol. 2005 July; 68(1): 260).

Chain of human M4 receptor (P08173 whole entry): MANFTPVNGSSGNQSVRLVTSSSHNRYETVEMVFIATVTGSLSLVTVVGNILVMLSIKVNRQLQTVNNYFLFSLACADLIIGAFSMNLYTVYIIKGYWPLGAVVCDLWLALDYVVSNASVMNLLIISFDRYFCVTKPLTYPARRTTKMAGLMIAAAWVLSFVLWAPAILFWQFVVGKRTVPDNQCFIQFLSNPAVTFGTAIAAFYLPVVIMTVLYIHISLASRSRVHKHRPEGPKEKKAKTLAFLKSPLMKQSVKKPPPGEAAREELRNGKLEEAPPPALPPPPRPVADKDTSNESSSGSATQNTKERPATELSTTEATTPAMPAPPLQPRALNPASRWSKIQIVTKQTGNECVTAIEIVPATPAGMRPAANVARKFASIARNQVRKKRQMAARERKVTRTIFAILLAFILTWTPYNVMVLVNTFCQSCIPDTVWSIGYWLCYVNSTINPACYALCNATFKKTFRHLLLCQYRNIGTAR

Structure (SMILES)	Ki
C[C@@H]1CN(c2ncc(S(C)(=O)=O)cn2)CCN1C(=O)OC1CC2(C1)CN(Cc1ccccc1)C2 [Compound 13, 2-benzyl-2-azaspiro [3.3]heptan-6-yl (2R)-4-(5-methanesulfonyl-pyrimidin-2-yl)-2-methylpiperazine-1-carboxylate]	100 to 500 nM
CCS(=O)(=O)c1cnc(N2C[C@@H](C)N(C(=O)OC3CC4(C3)CN(Cc3ccccc3)C4)[C@@H](C)C2)nc1 [Compound 32, 2-benzyl-2-azaspiro [3.3]heptan-6-yl (2R,6S)-4-[5-(ethane-sulfonyl)pyrimidin-2-yl]-2,6-dimethylpiperazine-1-carboxylate]	< 100 nM
C[C@@H]1CN(c2ncc(N3CCCC3=O)cn2)C[C@H](C)N1C(=O)OC1CC2(C1)CN(Cc1ccccc1)C2 [Compound 30, 2-benzyl-2-azaspiro [3.3]heptan-6-yl (2R,6S)-2,6-dimethyl-4-[5-(2-oxopyrrolidin-1-yl)pyrimidin-2-yl]piperazine-1-carboxylate]	≥ 500 nM
C[C@@H]1CN(c2ncc(S(C)(=O)=O)cn2)C[C@H](C)N1C(=O)OC1CC2(C1)CN(Cc1ccc(Cl)cc1)C2 [Compound 36, 2-[(4-chlorophenyl)methyl]-2-azaspiro[3.3] heptan-6-yl (2R,6S)-4-(5-methanesulfonylpyrimidin-2-yl)-2,6-dimethyl-piperazine-1-carboxylate]	< 100 nM
COc1ccc(CN2CC3(CC(OC(=O)N4[C@H](C)CN(c5ncc(S(C)(=O)=O)cn5)C[C@@H]4C)C3)C2)cc1 [Compound 60, 2-[(4-methoxyphenyl)methyl]-2-azaspiro[3.3] heptan-6-yl (2R,6S)-4-(5-methanesulfonylpyrimidin-2-yl)-2,6-dimethyl-piperazine-1-carboxylate]	< 100 nM
C[C@@H]1CN(c2ncc(S(C)(=O)=O)cn2)C[C@H](C)N1C(=O)OC1CC2(C1)CN(Cc1ccc(F)cc1)C2 [Compound 38, 2-[(4-fluorophenyl)methyl]-2-azaspiro[3.3] heptan-6-yl (2R,6S)-4-(5-methanesulfonylpyrimidin-2-yl)-2,6-dimethyl-piperazine-1-carboxylate]	< 100 nM
C[C@@H]1CN(c2ncc(S(=O)(=O)C3CC3)cn2)[C@@H](C)CN1C(=O)OC1CC2(C1)CN(Cc1ccccc1)C2 [Compound 20, 2-benzyl-2-azaspiro [3.3]heptan-6-yl (2R,5S)-4-[5-(cyclo-propanesulfonyl)pyrimidin-2-yl]-2,5-dimethyl-piperazine-1-carboxylate]	< 100 nM
C[C@@H]1CN(c2ncc(S(C)(=O)=O)cn2)[C@@H](C)CN1C(=O)OC1CC2(C1)CN(Cc1ccccc1)C2 [Compound 12, 2-benzyl-2-azaspiro [3.3]heptan-6-yl (2R,5S)-4-(5-methane-sulfonylpyrimidin-2-yl)-2,5-dimethylpiperazine-1-carboxylate]	< 100 nM
C[C@@H]1CN(c2ncc(N3CCC3=O)cn2)C[C@H](C)N1C(=O)OC1CC2(C1)CN(Cc1ccccc1)C2 [Compound 29, 2-benzyl-2-azaspiro [3.3]heptan-6-yl (2R,6S)-2,6-dimethyl-4-[5-(2-oxoazetidin-1-yl)pyrimidin-2-yl] piperazine-1-carboxylate]	≥ 500 nM
C[C@@H]1CN(c2ncc(OC[C@@H](C)O)cn2)C[C@H](C)N1C(=O)OC1CC2(C1)CN(Cc1ccccc1)C2 [Compound 56, 2-benzyl-2-azaspiro [3.3]heptan-6-yl (2R,6S)-4-{5-[(2R)-2-hydroxypropoxy]pyrimidin-2-yl}-2,6-dimethyl-piperazine-1-carboxylate]	100 to 500 nM
C[C@@H]1CN(c2ccc(S(C)(=O)=O)cc2)C[C@H](C)N1C(=O)NC1CC2(C1)CN(Cc1ccccc1)C2 [Compound 9, (2R,6S)-N-{2-benzyl-2-azaspiro[3.3]heptan-6-yl}-4-(4-methanesulfonyl-phenyl)-2,6-dimethyl-piperazine-1-carboxamide]	≥ 500 nM

— US20250092022A1, “MUSCARINIC RECEPTOR 4 ANTAGONISTS AND METHODS OF USE” (Neurocrine Biosciences, Inc., priority 2021, published 2025)
